Reference: patent US6495525B1, “VLA-4 inhibitor: oMePUPA-V” (Biogen, Inc., priority 1998, dated 2002)
pIC50: −log10 of the molar value. Entries after “also recorded” stand apart in the source; their conditions may differ.

Assays:
[1] = molecular target: T1, human ACE (Homo sapiens, UniProt P12821); test: ACE protease activity (Cerep, HUVEC, 3H-HGG conversion); format: biochemical
T1 construct: The source of ACE proteases was human endothelial cells (HUVEC); host or cells: HUVEC (human endothelial cells)
T1 sequence (P12821 30-1306): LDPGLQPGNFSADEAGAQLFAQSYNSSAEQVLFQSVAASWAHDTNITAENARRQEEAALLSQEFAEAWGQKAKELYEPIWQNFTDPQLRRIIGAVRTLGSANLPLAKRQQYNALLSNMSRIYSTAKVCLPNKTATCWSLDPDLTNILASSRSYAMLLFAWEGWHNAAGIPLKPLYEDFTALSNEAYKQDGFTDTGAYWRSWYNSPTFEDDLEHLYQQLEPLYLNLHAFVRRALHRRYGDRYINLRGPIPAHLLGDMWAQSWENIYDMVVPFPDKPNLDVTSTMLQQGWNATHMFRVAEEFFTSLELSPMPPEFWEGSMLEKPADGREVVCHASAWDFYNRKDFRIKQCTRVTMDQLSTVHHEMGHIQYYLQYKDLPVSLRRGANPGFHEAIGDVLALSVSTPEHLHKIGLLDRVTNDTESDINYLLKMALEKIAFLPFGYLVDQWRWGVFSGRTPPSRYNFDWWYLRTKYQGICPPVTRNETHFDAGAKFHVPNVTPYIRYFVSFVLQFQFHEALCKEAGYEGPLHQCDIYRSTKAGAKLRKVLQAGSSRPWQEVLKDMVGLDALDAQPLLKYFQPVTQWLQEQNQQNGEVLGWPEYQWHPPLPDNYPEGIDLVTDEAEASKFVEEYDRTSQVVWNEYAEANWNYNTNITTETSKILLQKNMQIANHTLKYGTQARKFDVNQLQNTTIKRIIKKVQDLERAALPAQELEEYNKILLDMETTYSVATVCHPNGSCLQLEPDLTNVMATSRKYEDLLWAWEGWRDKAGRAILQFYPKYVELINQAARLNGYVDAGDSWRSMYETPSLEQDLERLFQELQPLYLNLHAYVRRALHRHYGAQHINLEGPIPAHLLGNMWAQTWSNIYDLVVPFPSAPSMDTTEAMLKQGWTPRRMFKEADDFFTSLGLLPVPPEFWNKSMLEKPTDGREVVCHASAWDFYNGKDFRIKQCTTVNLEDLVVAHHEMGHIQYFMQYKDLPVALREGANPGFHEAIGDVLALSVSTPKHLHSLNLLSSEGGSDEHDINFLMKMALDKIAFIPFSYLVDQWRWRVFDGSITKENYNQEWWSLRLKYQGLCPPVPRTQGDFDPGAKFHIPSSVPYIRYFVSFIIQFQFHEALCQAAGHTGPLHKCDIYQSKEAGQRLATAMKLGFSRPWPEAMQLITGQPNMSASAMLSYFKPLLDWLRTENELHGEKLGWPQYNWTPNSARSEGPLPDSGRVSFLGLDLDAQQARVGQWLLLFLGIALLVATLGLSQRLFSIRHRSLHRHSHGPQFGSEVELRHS
Excerpt: The source of ACE proteases was human endothelial cells (HUVEC). ^3H-HGG, added to HUVEC, was converted to ^3H-hippuric acid and glycylglycine by ACE.

[2] = system: mouse contact hypersensitivity; test: DNFB contact hypersensitivity model, ear swelling; format: in vivo, mice; details: 0.03 or 0.3 mg/kg enterally 4 hours after DNFB challenge, measured 24 hours after challenge
Procedure: Twenty gram female virus-free Balb/c mice (Jackson Laboratories, Bar Harbor, Me.) housed four to a cage in microisolator cages in Biogen's virus-free animal facility and receiving ad libitum mouse chow and tap water were used for all studies. Mice were anesthetized with ketamine:xylazine (90:10 mg/kg, i.p.). A 3 cm^2 patch of abdominal skin, xiphoid to pubis was exposed by closely shaving the far and the skin was scrubbed with 70% ethanol. A 25 μL volume of 0.5% DNFB in 4:1 v/v acetone:olive oil vehicle is uniformly applied to the bare abdominal skin. The skin was lightly scratched with the applying pipette tip to encourage mild inflammation. […] Twenty four hours after challenge, mice were again anesthetized with ketamine:xylazine and the ear thickness of both ears measured with an engineer's micrometer to an accuracy of 10^−4 inches.
Compounds (100 μL) or appropriate vehicle (Dimethylsulfoxide [DMSO] in isotonic phosphate buffered saline [PBS], 100 μL) were administered orally by gavage 4 hours after challenging the immune response on Day 5. […] The ear swelling response for each mouse was calculated as the difference between its vehicle- and DNFB-challenged ear thickness at 24 hours after challenge. […] Inhibition of the ear swelling response was determined by comparison of treated groups with their vehicle control group. […] Values are expressed as means ± standard error of the mean (SEM).

[3] = molecular target: T2, VLA-5 (Homo sapiens, UniProt P05556+P08648); test: Adhesion of K562 cells to Fn-120 (VLA-5 / α5β1-FN adhesion); format: cell-based
T2 construct: endogenous in cells; host or cells: K562 cells
T2 sequence (P08648 42-894 limits assumed): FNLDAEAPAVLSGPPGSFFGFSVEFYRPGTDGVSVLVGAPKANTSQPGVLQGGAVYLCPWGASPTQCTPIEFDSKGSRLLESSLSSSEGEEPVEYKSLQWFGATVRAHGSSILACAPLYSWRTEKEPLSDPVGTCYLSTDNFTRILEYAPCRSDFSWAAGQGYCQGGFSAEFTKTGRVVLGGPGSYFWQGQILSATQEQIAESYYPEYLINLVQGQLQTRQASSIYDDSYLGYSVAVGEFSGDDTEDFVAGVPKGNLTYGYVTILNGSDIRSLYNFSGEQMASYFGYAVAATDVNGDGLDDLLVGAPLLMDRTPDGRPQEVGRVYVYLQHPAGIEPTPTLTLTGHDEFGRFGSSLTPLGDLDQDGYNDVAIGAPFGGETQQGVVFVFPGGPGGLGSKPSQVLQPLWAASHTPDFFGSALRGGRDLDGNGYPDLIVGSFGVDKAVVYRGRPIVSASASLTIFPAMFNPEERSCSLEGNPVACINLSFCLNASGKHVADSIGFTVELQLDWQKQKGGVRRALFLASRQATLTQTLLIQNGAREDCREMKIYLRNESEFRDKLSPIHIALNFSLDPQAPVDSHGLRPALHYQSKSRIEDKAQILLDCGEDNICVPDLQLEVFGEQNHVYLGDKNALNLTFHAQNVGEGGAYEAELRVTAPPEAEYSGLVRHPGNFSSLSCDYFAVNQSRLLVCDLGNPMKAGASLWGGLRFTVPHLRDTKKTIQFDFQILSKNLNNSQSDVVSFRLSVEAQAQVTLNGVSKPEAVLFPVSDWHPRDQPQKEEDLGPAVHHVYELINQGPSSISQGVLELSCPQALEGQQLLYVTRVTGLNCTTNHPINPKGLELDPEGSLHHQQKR
T2 sequence (P08648 895-1049 partner limits assumed): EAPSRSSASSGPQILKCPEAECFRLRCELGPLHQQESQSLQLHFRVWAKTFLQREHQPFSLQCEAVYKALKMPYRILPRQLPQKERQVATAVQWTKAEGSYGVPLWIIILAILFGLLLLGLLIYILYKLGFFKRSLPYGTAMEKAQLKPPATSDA
T2 sequence (P05556 21-798): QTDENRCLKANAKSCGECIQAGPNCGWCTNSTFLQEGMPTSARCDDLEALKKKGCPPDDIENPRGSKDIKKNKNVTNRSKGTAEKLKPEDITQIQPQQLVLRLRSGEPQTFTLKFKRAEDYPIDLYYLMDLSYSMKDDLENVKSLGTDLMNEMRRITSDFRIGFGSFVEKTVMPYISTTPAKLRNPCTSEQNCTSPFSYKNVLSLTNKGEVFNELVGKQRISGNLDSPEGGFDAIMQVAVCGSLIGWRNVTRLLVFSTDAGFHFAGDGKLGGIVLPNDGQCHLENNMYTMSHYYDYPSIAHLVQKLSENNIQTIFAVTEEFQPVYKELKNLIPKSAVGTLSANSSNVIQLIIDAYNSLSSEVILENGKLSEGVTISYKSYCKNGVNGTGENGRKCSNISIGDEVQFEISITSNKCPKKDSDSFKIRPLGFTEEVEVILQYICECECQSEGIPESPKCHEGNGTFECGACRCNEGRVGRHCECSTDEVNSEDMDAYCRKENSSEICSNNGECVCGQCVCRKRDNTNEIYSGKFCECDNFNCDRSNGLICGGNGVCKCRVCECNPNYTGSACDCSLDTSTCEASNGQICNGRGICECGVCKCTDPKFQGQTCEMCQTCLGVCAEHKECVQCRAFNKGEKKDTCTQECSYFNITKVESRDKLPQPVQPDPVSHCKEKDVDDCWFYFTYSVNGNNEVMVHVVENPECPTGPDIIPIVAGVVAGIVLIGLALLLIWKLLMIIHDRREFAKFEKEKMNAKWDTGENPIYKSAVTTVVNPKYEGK
Procedure: Untreated 96 well polystyrene flat bottom plates were coated with 5 μg/ml Fn-120 overnight at 4° C. The plates were washed twice with phosphate buffered saline (PBS) and blocked with 1% Bovine Serum Albumin (BSA) for 1 hour at room temperature. The plates were washed twice with TBS buffer containing 1 mM MnCl2 (assay buffer). K562 cells were labeled with 2 μM of the fluorescent dye, BCECF-AM (see section 4.1.3), and bound to the plate for 30 minutes at room temperature. The plates were inverted and washed three times and adherent cells were quantitated in a Cytofluor fluorescent platereader using an excitation wavelength of 485 nm and an emission wavelength of 530

[4] = Bulk / drug substance stability (HPLC); format: physicochemical
Procedure: At four weeks, one or two degradation peaks became detectable at 40° C. and 50° C., but the level of each impurity peak was still less than 0.02%.

[5] = molecular target: VLA-4 (Homo sapiens, UniProt P05556+P13612); test: CS1 Cell Adhesion Assay, Jurkat cells to CS1/BSA conjugate; format: cell-based; set-up: endogenous in cells; host or cells: Jurkat (human T cell line)
VLA-4, sequence (P13612 34-1032): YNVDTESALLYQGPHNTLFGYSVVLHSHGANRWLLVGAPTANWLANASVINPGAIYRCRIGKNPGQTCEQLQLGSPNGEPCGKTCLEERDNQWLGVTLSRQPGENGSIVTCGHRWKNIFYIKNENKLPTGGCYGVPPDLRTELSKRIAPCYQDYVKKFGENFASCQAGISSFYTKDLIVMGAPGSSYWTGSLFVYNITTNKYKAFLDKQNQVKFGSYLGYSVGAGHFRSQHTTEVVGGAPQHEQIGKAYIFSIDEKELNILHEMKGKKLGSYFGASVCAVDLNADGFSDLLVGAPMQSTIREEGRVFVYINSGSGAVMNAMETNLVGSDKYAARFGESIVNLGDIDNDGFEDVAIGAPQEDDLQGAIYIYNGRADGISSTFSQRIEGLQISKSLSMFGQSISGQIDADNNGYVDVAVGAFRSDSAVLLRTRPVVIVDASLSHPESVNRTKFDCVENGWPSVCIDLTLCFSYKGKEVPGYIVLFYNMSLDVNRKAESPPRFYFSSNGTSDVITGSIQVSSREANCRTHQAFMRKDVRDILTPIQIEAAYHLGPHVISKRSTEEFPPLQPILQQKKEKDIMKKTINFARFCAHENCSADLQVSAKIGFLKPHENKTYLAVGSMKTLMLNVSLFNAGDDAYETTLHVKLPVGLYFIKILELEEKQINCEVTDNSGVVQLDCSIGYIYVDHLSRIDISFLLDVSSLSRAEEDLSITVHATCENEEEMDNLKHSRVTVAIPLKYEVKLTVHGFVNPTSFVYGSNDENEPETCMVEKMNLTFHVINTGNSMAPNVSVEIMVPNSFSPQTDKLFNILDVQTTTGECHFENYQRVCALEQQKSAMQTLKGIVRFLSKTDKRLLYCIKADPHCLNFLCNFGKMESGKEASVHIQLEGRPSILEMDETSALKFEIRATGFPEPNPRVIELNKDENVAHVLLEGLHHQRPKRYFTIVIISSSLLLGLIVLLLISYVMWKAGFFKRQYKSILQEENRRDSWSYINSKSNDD
VLA-4, sequence (P05556 21-798): as the sequence (P05556 21-798) above
Procedure: The peptide NH2-cysteine-tyrosine-CS-1 was synthesized and coupled to BSA-SMCC (SMCC is a heterobifunctional crosslinker which reacts with free amino groups on BSA and the sole cysteine of the synthetic peptide) at a CS1/BSA ratio of 10:1. Wells were coated overnight with 100 μL of conjugate diluted to a final concentration of 1 ug/ml. The next day the wells were blocked with BSA in PBS for one hour and then washed three times.
The human T cell line, Jurkat, was labeled with 2 μM BCECF-AM, a fluorescent dye (2′, 7′, bis-(2-carboxyethyl)-5 and -6) carboxy fluorescein acetoxymethyl ester (Molecular Probes Inc., Eugene, Oregon; catalog #B-1150) that is internalized and deesterified thus trapping the dye within live cells. Jurkat cells (1×10^5 cells/well) in buffer containing 1 mM Mn^+2 were added to the coated plates in the presence of three-fold serial dilutions of inhibitor. Each concentration was assayed in duplicate. After 30 minutes at room temperature, the plates were inverted and washed three times or until no cells were adherent to control wells coated with BSA alone. CS1-adherent cells were quantitated in a Cytofluor fluorescent platereader using an excitation wavelength of 485 nm and an emission wavelength of 530 nm.
Cells adhered to CS1/BSA in the absence of compound served as the 0% inhibition control whereas cells adhering to BSA alone served as the 100% inhibition control. IC50's were calculated using Deltagraph software, version 5.

[6] = system: panel of radioligand, enzyme, and functional assays; test: Panlabs ProfilingScreen, DiscoveryScreen, Immunoscreen and Cerep membrane receptor panel
Procedure: oMePUPA-V was tested in the Panlabs ProfilingScreen, DiscoveryScreen, and Immunoscreen panel of radioligand, enzyme, and functional assays and in the Cerep membrane receptor panel.

In the case of Cc1ccccc1NC(=O)Nc1ccc(CC(=O)N2CCC[C@H]2C(=O)N[C@H](C)CC(=O)O)cc1 [oMePUPA-V], the ACE activity [1] was “clean”, the “inhibition of human ACE protease activity” value ([1]; at 10 μM, HUVEC) was “no inhibition” and the “inhibition of ear swelling response (in words)” value [2] was “significantly inhibited”. The “measurable activity against VLA-5” value [3] was greater than 100 µM, the “inhibition, K562 (VLA-5) Fn-120 adhesion” value ([3]; @ 100 μM, Mn+2, 100 µM) was “no inhibition; also recorded: no inhibition @” and the pIC50 ([3]; read-out: IC50 against α5β1-FN adhesion) was less than 4.00. The “Bulk stability (40° C., 75% RH), time stable” value [4] was “stable >4 wk”, the pIC50 ([5]; 1 mM MnCl2, read-out: IC50 ± SD, Jurkat cell CS1 adhesion) was 7.66 and the “blocking of Jurkat cell adhesion to CS1 (in words)” value ([5]; in the presence of Mn+2) was “completely block”. For the same compound, the “In vitro pharma screen 85 tests” value [6] was “clean” and the “activity in Panlabs and Cerep panels” value ([6]; at 10 μM) was “No significant activity”.
